Target: Angiopoietin-1 receptor (Homo sapiens, UniProt Q02763)
Experiment: D3R2025
Excerpt: D3R2025

Chain of Angiopoietin-1 receptor (Q02763 whole entry): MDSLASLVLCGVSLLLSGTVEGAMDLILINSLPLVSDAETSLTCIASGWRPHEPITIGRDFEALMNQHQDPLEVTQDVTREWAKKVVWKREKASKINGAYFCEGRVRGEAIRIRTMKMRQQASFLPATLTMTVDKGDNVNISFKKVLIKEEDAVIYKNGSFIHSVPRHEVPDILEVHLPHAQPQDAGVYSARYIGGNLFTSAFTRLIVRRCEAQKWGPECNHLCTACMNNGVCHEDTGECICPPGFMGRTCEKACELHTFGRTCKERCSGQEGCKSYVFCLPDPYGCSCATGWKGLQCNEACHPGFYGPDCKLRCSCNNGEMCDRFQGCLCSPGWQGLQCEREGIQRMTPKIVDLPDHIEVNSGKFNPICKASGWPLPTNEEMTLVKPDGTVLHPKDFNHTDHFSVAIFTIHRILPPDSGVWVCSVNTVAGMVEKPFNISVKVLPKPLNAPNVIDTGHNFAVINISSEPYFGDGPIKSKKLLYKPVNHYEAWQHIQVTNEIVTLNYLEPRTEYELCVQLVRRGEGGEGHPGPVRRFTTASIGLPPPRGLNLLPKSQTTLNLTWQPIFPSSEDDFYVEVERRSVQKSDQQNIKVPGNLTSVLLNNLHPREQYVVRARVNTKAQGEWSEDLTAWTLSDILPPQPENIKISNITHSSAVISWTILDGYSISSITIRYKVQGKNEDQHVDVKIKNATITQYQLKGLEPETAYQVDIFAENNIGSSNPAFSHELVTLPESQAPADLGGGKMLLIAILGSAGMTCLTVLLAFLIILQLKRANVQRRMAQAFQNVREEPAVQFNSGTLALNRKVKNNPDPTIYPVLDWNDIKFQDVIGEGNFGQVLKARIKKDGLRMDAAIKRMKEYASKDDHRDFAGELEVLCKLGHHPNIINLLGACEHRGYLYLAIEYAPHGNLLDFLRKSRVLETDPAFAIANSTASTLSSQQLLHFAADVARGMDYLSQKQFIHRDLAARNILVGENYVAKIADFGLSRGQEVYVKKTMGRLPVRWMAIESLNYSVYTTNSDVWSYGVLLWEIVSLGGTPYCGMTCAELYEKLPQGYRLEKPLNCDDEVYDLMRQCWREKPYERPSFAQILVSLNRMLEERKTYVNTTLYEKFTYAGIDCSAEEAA

Structure (SMILES)	Kd
CSc1nccc(-c2c(-c3ccc(F)cc3)ncn2CCCN2CCOCC2)n1	10 µM
CNc1nccc(-c2c(-c3ccc(F)cc3)ncn2CCCN2CCOCC2)n1	10 µM
Cc1cc(-c2c(-c3ccc(F)cc3)ncn2CCCN2CCOCC2)nc(N)n1	10 µM
CC(C)c1nc(-c2ccc(F)c(NS(=O)(=O)c3c(F)cccc3F)c2)c(-c2ccnc(Nc3ccc(N4CCOCC4)nc3)n2)s1	0.024 µM
O=C(Nc1cccc(-c2nn3ncccc3c2-c2ccnc(Nc3cccnc3)n2)c1)c1c(F)cccc1F	10 µM
CCOC(=O)N1CCC(n2cnc(-c3ccc(F)cc3)c2-c2ccnc(N)n2)CC1 [4-[5-(2-Amino-pyrimidin-4-yl)-4-(4-fluoro-phenyl)-imidazol-1-yl]-piperidine-1-carboxylic acid ethyl ester]	10 µM
COc1nccc(-c2c(-c3ccc(F)cc3)ncn2CCCN2CCOCC2)n1 [4-{3-[4-(4-Fluoro-phenyl)-5-(2-methoxy-pyrimidin-4-yl)-imidazol-1-yl]-propyl}-morpholine]	10 µM
Nc1nccc(-c2c(-c3ccc(F)cc3)ncn2C2CCN(CC(F)(F)F)CC2)n1 [4-{5-(4-Fluoro-phenyl)-3-[1-(2,2,2-trifluoro-ethyl)-piperidin-4-yl]-3H-imidazol-4-yl}-pyrimidin-2-ylamine]	10 µM
CC(C)c1nc(-c2cccc(NS(=O)(=O)c3c(F)cccc3F)c2F)c(-c2ccnc(Nc3ccc(N4CCOCC4)nc3)n2)s1 [D3RKN_29]	0.0034 µM
O=C(Nc1cccc(-c2nn3ncccc3c2-c2ccnc(Nc3ccccc3)n2)c1)c1c(F)cccc1F [D3RKN_56]	2.5 µM
CC(=O)N1CCN(c2ccc(Nc3nccc(-c4sc(C(C)C)nc4-c4cccc(NS(=O)(=O)c5cccc(Cl)c5)c4)n3)cn2)CC1 [D3RKN_98]	0.093 µM
CC(C)c1nc(-c2cccc(NS(=O)(=O)c3ccccc3)c2)c(-c2ccnc(Nc3ccc4c(c3)CN(C)CC4)n2)s1 [D3RKN_117]	0.092 µM
CC(C)c1nc(-c2cccc(NS(=O)(=O)c3c(F)cccc3F)c2)c(-c2ccnc(Nc3ccc(N4CCOCC4)nc3)n2)s1 [D3RKN_118]	0.027 µM
O=C(Nc1cccc(-c2nn3ncccc3c2-c2ccnc(Nc3cccc(C(F)(F)F)c3)n2)c1)c1c(F)cccc1F [D3RKN_119]	10 µM
CCc1nc(-c2cccc(N(C)S(=O)(=O)c3ccccc3)c2)c(-c2ccnc(Nc3ccc(N4CCN(C(C)=O)CC4)nc3)n2)s1 [D3RKN_120]	3.2 µM
COc1cc(Nc2nccc(-c3c(-c4cccc(NC(=O)c5c(F)cccc5F)c4)nn4ncccc34)n2)cc(OC)c1OC [D3RKN_124]	0.2 µM
CCNc1nccc(-c2c(-c3ccc(F)cc3)ncn2C2CCN(C)CC2)n1 [Ethyl-{4-[5-(4-fluoro-phenyl)-3-(1-methyl-piperidin-4-yl)-3H-imidazol-4-yl]-pyrimidin-2-yl}-amine]	10 µM
CNc1nccc(-c2c(-c3ccc(F)cc3)ncn2C2CCN(C)CC2)n1 [{4-[5-(4-Fluoro-phenyl)-3-(1-methyl-piperidin-4-yl)-3H-imidazol-4-yl]-pyrimidin-2-yl}-methyl-amine]	10 µM
